Measured values as given in patent US11780845B2 (Relay Therapeutics, Inc., priority 2019, dated 2023).

biological target: FGFR2 (Homo sapiens (Human), UniProt P21802); assay: Biochemical FGFR2 Caliper assay; settings: not given
Sequence (P21802 22-821): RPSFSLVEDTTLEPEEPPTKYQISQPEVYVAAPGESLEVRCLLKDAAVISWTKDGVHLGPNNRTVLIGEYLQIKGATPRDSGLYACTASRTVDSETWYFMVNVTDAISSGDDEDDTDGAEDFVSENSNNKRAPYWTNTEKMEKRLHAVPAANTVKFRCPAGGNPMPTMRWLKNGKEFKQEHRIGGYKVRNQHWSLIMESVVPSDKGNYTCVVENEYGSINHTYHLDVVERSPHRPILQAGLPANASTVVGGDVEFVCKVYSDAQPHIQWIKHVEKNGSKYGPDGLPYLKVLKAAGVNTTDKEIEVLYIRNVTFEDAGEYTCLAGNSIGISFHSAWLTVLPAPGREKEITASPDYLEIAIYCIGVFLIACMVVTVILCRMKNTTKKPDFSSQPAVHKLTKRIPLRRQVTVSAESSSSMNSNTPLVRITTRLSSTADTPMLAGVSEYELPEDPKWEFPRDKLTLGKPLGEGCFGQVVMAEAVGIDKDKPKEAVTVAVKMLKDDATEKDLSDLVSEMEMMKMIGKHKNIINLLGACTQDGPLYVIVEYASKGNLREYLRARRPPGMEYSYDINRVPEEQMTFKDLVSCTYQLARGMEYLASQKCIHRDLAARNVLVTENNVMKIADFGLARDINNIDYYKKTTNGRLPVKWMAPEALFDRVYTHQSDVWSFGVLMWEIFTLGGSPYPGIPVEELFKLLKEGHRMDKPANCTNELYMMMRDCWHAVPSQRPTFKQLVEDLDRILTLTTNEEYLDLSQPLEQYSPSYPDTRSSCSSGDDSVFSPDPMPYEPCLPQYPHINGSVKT

Row | Structure (SMILES) | IC50 [µM]
1 | C=C1CCN(c2ccc(-c3c(-c4ccc(Oc5nccc(C)n5)c(F)c4)c4c(C)ncnc4n3C)c(C)c2)C1=O [Example 1186] | < 0.1
2 | C=C(C)C(=O)Nc1ccc(-c2c(C3=CC[C@@H](C(=O)N4CCC[C@]45CCOC5)CC3)c3c(N)ncnc3n2C)cc1 (single isomer, unassigned) [Example 954] | < 0.1
3 | C=CC(=O)Nc1ccc(-c2c(C3=CC[C@@H](C(=O)N4CCCC4)CC3)c3c(C)ncnc3n2C)c(C)c1 (single isomer, unassigned) [Example 1106] | < 0.1
4 | C=C(C)C(=O)Nc1cccc(-c2[nH]c3ncnc(N)c3c2-c2ccc(C(=O)NCC3(F)COC3)cc2)c1 [Example 1079] | < 0.1
5 | C#Cc1cc(C)c(-c2c(-c3cnn(C)c3)c3c(N)ncnc3n2C)cn1 [Example 1144] | 0.1 to 0.25
6 | C=C(C)C(=O)Nc1ccc(-c2c(-c3ccc(Oc4cccc(C)n4)cc3)c3c(N)ncnn3c2CN(C)C)cc1 [Example 856] | 0.25 to 1
7 | C=C1C[C@H](C)N(c2ccc(-c3c(-c4ccc(Oc5nccc(C)n5)cc4)c4c(N)ncnc4n3C)cc2)C1=O [Example 1131] | < 0.1
8 | C=C(C)C(=O)Nc1ccc(-c2c(C3=CC[C@]4(CC3)CCN(C)C4=O)c3c(N)ncnc3n2C)cc1 (single isomer, unassigned) [Example 934] | < 0.1
9 | C=CC(=O)Nc1ccc(-c2c(-c3ccc(Oc4nccc(C)n4)cc3)c3c(C)ncnc3n2C)c(C)c1 [Example 1104] | < 0.1
10 | C=C(C)C(=O)Nc1ccc(-c2c(C3=CC[C@@](C)(C(=O)N4CCCC4)CC3)c3c(N)ncnc3n2C)cc1 [Example 1009] | 1 to 100
11 | C#Cc1cc(C)c(-c2c(C3=CC[C@@H](C(=O)N4CCCC4)CC3)c3c(C)ncnc3n2C)cn1 (single isomer, unassigned) [Example 1199] | < 0.1
12 | C=C1CCCN(c2ccc(-c3c(-c4ccc(Oc5nccc(C)n5)cc4)c4c(N)ncnc4n3C)cc2)C1=O [Example 1087] | < 0.1
13 | C=C(C)C(=O)Nc1ccc(-c2c(C3=C(F)C[C@@H](C(=O)N4CCCC4)CC3)c3c(N)ncnc3n2C)cc1 (single isomer, unassigned) [Example 883] | 1 to 100
14 | C=CC(=O)N1CC=C(c2c(C3=CC[C@@H](C(=O)N4CCCC4)CC3)c3c(N)ncnc3n2C)C1 (single isomer, unassigned) [Example 872] | 0.1 to 0.25

Now from value to compound:

Row | IC50 [µM] | Structure (SMILES)
15 | 0.25 to 1 | C#Cc1cc(CCCO)c(-c2[nH]c3ncnc(N)c3c2-c2ccc(Oc3nccc(C)n3)c(F)c2)cn1 [Example 1478]
16 | 1 to 100 | C=C(C)C(=O)Nc1ccc(-c2c(-c3ccn4ncnc4c3)c3c(N)ncnc3n2C)cc1 [Example 1350]
17 | 1 to 100 | C#Cc1cc(C)c(-c2c(-c3ccc(Oc4nccc(C)n4)c(F)c3)c3c(C(F)F)ncnc3n2C)cn1 [Example 1432]
18 | 0.25 to 1 | C=C(C)C(=O)Nc1ccc(-c2c(-c3cnc(-c4cccc(OC)c4)s3)c3c(N)ncnc3n2C)cc1 [Example 1420]
19 | < 0.1 | C#Cc1cc(C)c(-c2c(-c3ccc(Oc4nccc(C)n4)c(F)c3)c3c(C)ncnc3n2C)c(C)n1 [Example 1406]
20 | 1 to 100 | COC/C=C/c1cc(C)c(-c2c(-c3ccc(Oc4nccc(C)n4)c(F)c3)c3c(N)ncnc3n2C)cn1 [Example 1378]
21 | < 0.1 | C#Cc1ncc(-c2c(-c3ccc(Oc4nccc(C)n4)cc3F)c3c(N)ncnc3n2C)c(C)c1F [Example 1310]
22 | 1 to 100 | C=C(C)C(=O)Nc1ccc(-c2c(-c3ccc4nccn4c3)c3c(N)ncnc3n2C)cc1 [Example 1345]
23 | < 0.1 | C#Cc1cc(C)c(-c2c(-c3ccc(Oc4ncccn4)c(F)c3)c3c(N)ncnc3n2C)cn1 [Example 1234]
24 | < 0.1 | C#Cc1ncc(-c2c(-c3ccc(C(=O)N4CCC[C@@H]4C#C)cc3)c3c(N)ncnc3n2C)c(C)c1F (single isomer, unassigned) [Example 1332]
25 | < 0.1 | C#Cc1cc(Cl)c(-c2c(-c3ccc(Oc4nccc(C)n4)c(F)c3)c3c(N)ncnc3n2C)cn1 [Example 1250]
26 | 0.25 to 1 | C#Cc1ccc2c(cc(-c3c(-c4ccc(Oc5nccc(C)n5)c(F)c4)c4c(N)ncnc4n3C)n2C)n1 [Example 1461]
27 | 0.25 to 1 | C#Cc1cc2c(cn1)-c1c(-c3ccc(Oc4nccc(C)n4)c(F)c3)c3c(N)ncnc3n1[C@H](C)CO2 [Example 1441]
28 | < 0.1 | COCC#Cc1ncc(-c2c(-c3ccc(Oc4nccc(C)n4)cc3)c3c(N)ncnc3n2C)c(C)n1 [Example 1232]

test system: SNU-16; assay: Cell SNU-16 assay; assay type: cell-based; settings: Homo sapiens, SNU-16, SNU-16 cells

Row | Structure (SMILES) | IC50 [µM]
29 | C=C1CCN(c2ccc(-c3c(-c4ccc(Oc5nccc(C)n5)c(F)c4)c4c(C)ncnc4n3C)c(C)c2)C1=O [Example 1186] | ≤ 0.1
30 | C=CC(=O)Nc1ccc(-c2c(C3=CC[C@@H](C(=O)N4CCCC4)CC3)c3c(C)ncnc3n2C)c(C)c1 (single isomer, unassigned) [Example 1106] | ≤ 0.1
31 | C=C(C)C(=O)Nc1cccc(-c2[nH]c3ncnc(N)c3c2-c2ccc(C(=O)NCC3(F)COC3)cc2)c1 [Example 1079] | ≤ 0.1
32 | C#Cc1cc(C)c(-c2c(-c3cnn(C)c3)c3c(N)ncnc3n2C)cn1 [Example 1144] | ≤ 0.1
33 | C=C(C)C(=O)Nc1ccc(-c2c(-c3ccc(Oc4cccc(C)n4)cc3)c3c(N)ncnn3c2CN(C)C)cc1 [Example 856] | 0.25 to 1
34 | C=C1C[C@H](C)N(c2ccc(-c3c(-c4ccc(Oc5nccc(C)n5)cc4)c4c(N)ncnc4n3C)cc2)C1=O [Example 1131] | ≤ 0.1
35 | C=C(C)C(=O)Nc1ccc(-c2c(C3=CC[C@]4(CC3)CCN(C)C4=O)c3c(N)ncnc3n2C)cc1 (single isomer, unassigned) [Example 934] | ≤ 0.1
36 | C=CC(=O)Nc1ccc(-c2c(-c3ccc(Oc4nccc(C)n4)cc3)c3c(C)ncnc3n2C)c(C)c1 [Example 1104] | ≤ 0.1
37 | C#Cc1cc(C)c(-c2c(C3=CC[C@@H](C(=O)N4CCCC4)CC3)c3c(C)ncnc3n2C)cn1 (single isomer, unassigned) [Example 1199] | ≤ 0.1
38 | C=C1CCCN(c2ccc(-c3c(-c4ccc(Oc5nccc(C)n5)cc4)c4c(N)ncnc4n3C)cc2)C1=O [Example 1087] | ≤ 0.1
39 | C=C(C)C(=O)Nc1ccc(-c2c(C3=C(F)C[C@@H](C(=O)N4CCCC4)CC3)c3c(N)ncnc3n2C)cc1 (single isomer, unassigned) [Example 883] | 1 to 100
40 | C=CC(=O)N1CC=C(c2c(C3=CC[C@@H](C(=O)N4CCCC4)CC3)c3c(N)ncnc3n2C)C1 (single isomer, unassigned) [Example 872] | 0.1 to 0.25

Continued, values first:

Row | IC50 [µM] | Structure (SMILES)
41 | 0.1 to 0.25 | C#Cc1cc(CCCO)c(-c2[nH]c3ncnc(N)c3c2-c2ccc(Oc3nccc(C)n3)c(F)c2)cn1 [Example 1478]
42 | 1 to 100 | C=C(C)C(=O)Nc1ccc(-c2c(-c3ccn4ncnc4c3)c3c(N)ncnc3n2C)cc1 [Example 1350]
43 | 1 to 100 | C#Cc1cc(C)c(-c2c(-c3ccc(Oc4nccc(C)n4)c(F)c3)c3c(C(F)F)ncnc3n2C)cn1 [Example 1432]
44 | 0.25 to 1 | C=C(C)C(=O)Nc1ccc(-c2c(-c3cnc(-c4cccc(OC)c4)s3)c3c(N)ncnc3n2C)cc1 [Example 1420]
45 | ≤ 0.1 | C#Cc1cc(C)c(-c2c(-c3ccc(Oc4nccc(C)n4)c(F)c3)c3c(C)ncnc3n2C)c(C)n1 [Example 1406]
46 | 1 to 100 | COC/C=C/c1cc(C)c(-c2c(-c3ccc(Oc4nccc(C)n4)c(F)c3)c3c(N)ncnc3n2C)cn1 [Example 1378]
47 | ≤ 0.1 | C#Cc1ncc(-c2c(-c3ccc(Oc4nccc(C)n4)cc3F)c3c(N)ncnc3n2C)c(C)c1F [Example 1310]
48 | 1 to 100 | C=C(C)C(=O)Nc1ccc(-c2c(-c3ccc4nccn4c3)c3c(N)ncnc3n2C)cc1 [Example 1345]
49 | ≤ 0.1 | C#Cc1cc(C)c(-c2c(-c3ccc(Oc4ncccn4)c(F)c3)c3c(N)ncnc3n2C)cn1 [Example 1234]
50 | ≤ 0.1 | C#Cc1ncc(-c2c(-c3ccc(C(=O)N4CCC[C@@H]4C#C)cc3)c3c(N)ncnc3n2C)c(C)c1F (single isomer, unassigned) [Example 1332]
51 | ≤ 0.1 | C#Cc1cc(Cl)c(-c2c(-c3ccc(Oc4nccc(C)n4)c(F)c3)c3c(N)ncnc3n2C)cn1 [Example 1250]
52 | 0.1 to 0.25 | C#Cc1ccc2c(cc(-c3c(-c4ccc(Oc5nccc(C)n5)c(F)c4)c4c(N)ncnc4n3C)n2C)n1 [Example 1461]
53 | 0.1 to 0.25 | C#Cc1cc2c(cn1)-c1c(-c3ccc(Oc4nccc(C)n4)c(F)c3)c3c(N)ncnc3n1[C@H](C)CO2 [Example 1441]
54 | ≤ 0.1 | COCC#Cc1ncc(-c2c(-c3ccc(Oc4nccc(C)n4)cc3)c3c(N)ncnc3n2C)c(C)n1 [Example 1232]

same assay, conditions: SNU-16 cells

Row | IC50 [µM] | Structure (SMILES)
55 | ≤ 0.1 | C=C(C)C(=O)Nc1ccc(-c2c(C3=CC[C@@H](C(=O)N4CCC[C@]45CCOC5)CC3)c3c(N)ncnc3n2C)cc1 (single isomer, unassigned) [Example 954]
56 | 0.25 to 1 | C=C(C)C(=O)Nc1ccc(-c2c(C3=CC[C@@](C)(C(=O)N4CCCC4)CC3)c3c(N)ncnc3n2C)cc1 [Example 1009]
